Experimental data reported in publication PMC9866191, “Novel 9-Benzylaminoacridine Derivatives as Dual Inhibitors of Phosphodiesterase 5 and Topoisomerase II for the Treatment of Colon Cancer” (Molecules, 2023).

What was measured:
SF-268 = experiment: NCI-60 one-dose screen; assay type: cell-based; details: Homo sapiens; SF-268, CNS Cancer panel; single dose 10^−5 M; read-out: Growth inhibition %
CCRF-CEM = experiment: NCI-60 one-dose screen; assay type: cell-based; details: Homo sapiens, Leukemia panel, single dose 10^−5 M, read-out: Growth inhibition %
PDE5A = target: T1, PDE5A (Homo sapiens, UniProt O76074); experiment: Phosphodiesterase 5 HTRF cGMP assay; assay type: biochemical; details: for IC50: means ± S.D. (n = 4), read-out: PDE5 IC50; for inhibition at 10 µM: read-out: PDE5 % Inhibition at 10 μM
T1 construct: purchased BPS Bioscience, San Diego, CA, USA
Method: All the synthesized acridine derivatives were tested for their in vitro ability to inhibit PDE5A at a screening dose of 10 µM.
The enzyme activities of phosphodiesterase 5 (PDE5) were measured using an HTRF cGMP assay kit (Cisbio, Codolet, France). […] Afterward, the HTRF reagent (cGMP-d2 and anti-cGMP-cryptate) was added for 1 h at 25 °C, and PDE activity was assayed on an HTRF reader (Tecan Infinite F200 Pro).

U251 = experiment: NCI-60 one-dose screen; assay type: cell-based; details: Homo sapiens, U-251; U251, CNS Cancer panel; single dose 10^−5 M; read-out: Growth inhibition %
SN12C = experiment: NCI-60 one-dose screen; assay type: cell-based; details: Homo sapiens, Renal Cancer panel, single dose 10^−5 M, read-out: Growth inhibition %
SW-620 = experiment: NCI-60 one-dose screen; assay type: cell-based; details: Homo sapiens; SW-620, Colon Cancer panel; single dose 10^−5 M; read-out: Growth inhibition %
MDA-MB-435 = experiment: NCI-60 one-dose screen; assay type: cell-based; details: Homo sapiens; MDA-MB-435, Melanoma panel; single dose 10^−5 M; read-out: Growth inhibition %
COLO 205 = experiment: NCI-60 one-dose screen; assay type: cell-based; details: Homo sapiens; COLO 205, Colon Cancer panel; single dose 10^−5 M; read-out: Growth inhibition %
HCT-15 = experiment: NCI-60 one-dose screen; assay type: cell-based; details: Homo sapiens; HCT-15, Colon Cancer panel; single dose 10^−5 M; read-out: Growth inhibition %
UACC-257 = experiment: NCI-60 one-dose screen; assay type: cell-based; details: Homo sapiens; UACC-257, Melanoma panel; single dose 10^−5 M; read-out: Growth inhibition %
HCC-2998 = experiment: NCI-60 one-dose screen; assay type: cell-based; details: Homo sapiens; HCC-2998, Colon Cancer panel; single dose 10^−5 M; read-out: Growth inhibition %
SK-MEL-5 = experiment: NCI-60 one-dose screen; assay type: cell-based; details: Homo sapiens; SK-MEL-5, Melanoma panel; single dose 10^−5 M; read-out: Growth inhibition %
CAKI-1 = experiment: NCI-60 one-dose screen; assay type: cell-based; details: Homo sapiens; CAKI-1, Renal Cancer panel; single dose 10^−5 M; read-out: Growth inhibition %
M14 = experiment: NCI-60 one-dose screen; assay type: cell-based; details: Homo sapiens; M14, Melanoma panel; single dose 10^−5 M; read-out: Growth inhibition %
SF-295 = experiment: NCI-60 one-dose screen; assay type: cell-based; details: Homo sapiens; SF-295, CNS Cancer panel; single dose 10^−5 M; read-out: Growth inhibition %
SNB-75 = experiment: NCI-60 one-dose screen; assay type: cell-based; details: Homo sapiens; SNB-75, CNS Cancer panel; single dose 10^−5 M; read-out: Growth inhibition %
NCI/ADR-RES = experiment: NCI-60 one-dose screen; assay type: cell-based; details: Homo sapiens, Ovarian Cancer panel, single dose 10^−5 M, read-out: Growth inhibition %
SR = experiment: NCI-60 one-dose screen; assay type: cell-based; details: Homo sapiens, Leukemia panel, single dose 10^−5 M, read-out: Growth inhibition %
K-562 = experiment: NCI-60 one-dose screen; assay type: cell-based; details: Homo sapiens, K562; K-562, Leukemia panel; single dose 10^−5 M; read-out: Growth inhibition %
SK-MEL-28 = experiment: NCI-60 one-dose screen; assay type: cell-based; details: Homo sapiens; SK-MEL-28, Melanoma panel; single dose 10^−5 M; read-out: Growth inhibition %
SK-MEL-2 = experiment: NCI-60 one-dose screen; assay type: cell-based; details: Homo sapiens; SK-MEL-2, Melanoma panel; single dose 10^−5 M; read-out: Growth inhibition %
KM12 = experiment: NCI-60 one-dose screen; assay type: cell-based; details: Homo sapiens; KM12, Colon Cancer panel; single dose 10^−5 M; read-out: Growth inhibition %
OVCAR-3 = experiment: NCI-60 one-dose screen; assay type: cell-based; details: Homo sapiens; OVCAR-3, Ovarian Cancer panel; single dose 10^−5 M; read-out: Growth inhibition %
SK-OV-3 = experiment: NCI-60 one-dose screen; assay type: cell-based; details: Homo sapiens; SK-OV-3, Ovarian Cancer panel; single dose 10^−5 M; read-out: Growth inhibition %
T-47D = experiment: NCI-60 one-dose screen; assay type: cell-based; details: Homo sapiens, T47D, Breast Cancer panel, single dose 10^−5 M, read-out: Growth inhibition %
ACHN = experiment: NCI-60 one-dose screen; assay type: cell-based; details: Homo sapiens, Renal Cancer panel, single dose 10^−5 M, read-out: Growth inhibition %
HOP-92 = experiment: NCI-60 one-dose screen; assay type: cell-based; details: Homo sapiens; HOP-92, Non-small cell lung panel; single dose 10^−5 M; read-out: Growth inhibition %
NCI-H522 = experiment: NCI-60 one-dose screen; assay type: cell-based; details: Homo sapiens; NCI-H522, Non-small cell lung panel; single dose 10^−5 M; read-out: Growth inhibition %
IGROV1 = experiment: NCI-60 one-dose screen; assay type: cell-based; details: Homo sapiens, IGROV-1; IGROV1, Ovarian Cancer panel; single dose 10^−5 M; read-out: Growth inhibition %
LOX IMVI = experiment: NCI-60 one-dose screen; assay type: cell-based; details: Homo sapiens, Melanoma panel, single dose 10^−5 M, read-out: Growth inhibition %

| SMILES | inhibition at 10 µM (SF-268) [%] | inhibition at 10 µM (CCRF-CEM) [%] | IC50 (PDE5A) [µM] | inhibition at 10 µM (PDE5A) [%] | inhibition at 10 µM (U251) [%] | inhibition at 10 µM (SN12C) [%] | inhibition at 10 µM (SW-620) [%] | inhibition at 10 µM (MDA-MB-435) [%] | inhibition at 10 µM (COLO 205) [%] | inhibition at 10 µM (HCT-15) [%] | inhibition at 10 µM (UACC-257) [%] | inhibition at 10 µM (HCC-2998) [%] | inhibition at 10 µM (SK-MEL-5) [%] | inhibition at 10 µM (CAKI-1) [%] | inhibition at 10 µM (M14) [%] | inhibition at 10 µM (SF-295) [%] | inhibition at 10 µM (SNB-75) [%] | inhibition at 10 µM (NCI/ADR-RES) [%] | inhibition at 10 µM (SR) [%] | inhibition at 10 µM (K-562) [%] | also measured |
| --- | --- | --- | --- | --- | --- | --- | --- | --- | --- | --- | --- | --- | --- | --- | --- | --- | --- | --- | --- | --- | --- |
| c1csc(-c2ccc(CNc3c4ccccc4nc4ccccc34)cc2)c1 [Compound 24, Acridin-9-yl-(4-thiophen-2-yl-benzyl)-amine] | 37.1 | 97.4 | > 10 | 42.9 ± 5.35 | 173 | 36.8 | 172 | 183 | 94.9 | 166 | 137 | 187 | 191 | 64.5 | 174 | 84.2 | 63.9 | 88.8 | 144 | 140 | inhibition at 10 µM (SK-MEL-28): 186%; inhibition at 10 µM (SK-MEL-2): 19.2%; inhibition at 10 µM (KM12): 73.7%; inhibition at 10 µM (OVCAR-3): 90.5%; inhibition at 10 µM (SK-OV-3): 35%; inhibition at 10 µM (T-47D): 28.1%; inhibition at 10 µM (ACHN): 41.4%; inhibition at 10 µM (HOP-92): 102%; inhibition at 10 µM (NCI-H522): 71.1%; inhibition at 10 µM (IGROV1): 90%; inhibition at 10 µM (LOX IMVI): 191% |
| COc1ccc2nc3ccccc3c(NCc3ccccc3)c2c1 [Compound 25, Benzyl-(2-methoxyacridin-9-yl)-amine] | 55.8 | 66.6 | 3.61 ± 1 | 77.2 ± 3.03 | 77.1 | 77.5 | 80.5 | 66.2 | 119 | 86.9 | 72.9 | 136 | 81.2 | 74.2 | 74 | 80.3 | 54.5 | 81.7 | 95.7 | 94.2 | inhibition at 10 µM (SK-MEL-28): 50.3%; inhibition at 10 µM (SK-MEL-2): 52.1%; inhibition at 10 µM (KM12): 63.5%; inhibition at 10 µM (OVCAR-3): 59%; inhibition at 10 µM (SK-OV-3): 55.5%; inhibition at 10 µM (T-47D): 64.7%; inhibition at 10 µM (ACHN): 87.2%; inhibition at 10 µM (HOP-92): 113%; inhibition at 10 µM (NCI-H522): 65.4%; inhibition at 10 µM (IGROV1): 83.6%; inhibition at 10 µM (LOX IMVI): 131% |
| COc1ccc2nc3ccccc3c(NCc3ccc(F)cc3)c2c1 [Compound 28, (4-Fluorobenzyl)-(2-methoxyacridin-9-yl)-amine] | 65.4 | 81.7 | 5.31 ± 1.27 | 64.2 ± 7.47 | 77.9 | 83 | 85.3 | 76.1 | 154 | 95.9 | 111 | 178 | 107 | 92.8 | 84.7 | 85.6 | 76.2 | 84.9 | 101 | 98 | inhibition at 10 µM (SK-MEL-28): 64.7%; inhibition at 10 µM (SK-MEL-2): 65%; inhibition at 10 µM (KM12): 71.3%; inhibition at 10 µM (OVCAR-3): 68.8%; inhibition at 10 µM (SK-OV-3): 62.1%; inhibition at 10 µM (T-47D): 63.5%; inhibition at 10 µM (ACHN): 94.3%; inhibition at 10 µM (HOP-92): 111%; inhibition at 10 µM (NCI-H522): 81.8%; inhibition at 10 µM (IGROV1): 91.8%; inhibition at 10 µM (LOX IMVI): 167% |
| Cc1ccc2nc3ccccc3c(NCc3ccccc3)c2c1 [Compound 30, Benzyl-(2-methylacridin-9-yl)-amine] | 31 | 65.1 | 4.52 ± 1.74 | 68.8 ± 7.05 | 63 | 74.5 | 75.7 | 41.8 | 91.9 | 82 | 43.4 | 121 | 41.2 | 64.5 | 54.4 | 72 | 35 | 70.2 | 95.9 | 89 | inhibition at 10 µM (SK-MEL-28): 22%; inhibition at 10 µM (SK-MEL-2): 0.04%; inhibition at 10 µM (KM12): 43.7%; inhibition at 10 µM (OVCAR-3): 34%; inhibition at 10 µM (SK-OV-3): 35.7%; inhibition at 10 µM (T-47D): 36.4%; inhibition at 10 µM (ACHN): 76.8%; inhibition at 10 µM (HOP-92): 107%; inhibition at 10 µM (NCI-H522): 63%; inhibition at 10 µM (IGROV1): 84.2%; inhibition at 10 µM (LOX IMVI): 90.9% |
| Cc1ccc2nc3ccccc3c(NCc3ccc(Cl)cc3)c2c1 [Compound 31, (4-Chlorobenzyl)-(2-methyl-acridin-9-yl)-amine] | 20.9 | 81.8 | 4.78 ± 1.48 | 65.7 ± 7.48 | 74.9 | 60.5 | 68 | 29.7 | 153 | 85.5 | 103 | 179 | 46 | 54.3 | 117 | 56.3 | 33.5 | 58 | 109 | 97.4 | inhibition at 10 µM (SK-MEL-28): 24.5%; inhibition at 10 µM (SK-MEL-2): -1.95%; inhibition at 10 µM (KM12): 22.9%; inhibition at 10 µM (OVCAR-3): 29.1%; inhibition at 10 µM (SK-OV-3): 24.8%; inhibition at 10 µM (T-47D): 42.1%; inhibition at 10 µM (ACHN): 66.7%; inhibition at 10 µM (HOP-92): 105%; inhibition at 10 µM (NCI-H522): 45.8%; inhibition at 10 µM (IGROV1): 72.9%; inhibition at 10 µM (LOX IMVI): 157% |
